Measurements taken from patent US7618790B2, “Method for NGF assay for in vitro diagnosis of breast cancer and therapeutic use” (Biomerieux, priority 2002, dated 2009).

What was measured:
MCF-7 cells = experiment: Growth of MCF-7 cancer cells (cell count with hemocytometer); assay type: cell-based, human; details: serum-free basic medium, 24-72 h, FIG. 4A
Method: The effect of the blocking antibody MAB-256 (above) and of the inhibitor K-252a on the growth of MCF-7 cells was studied. To do this, the cells were seeded in a proportion of 2×10^4 cells/ml in 35 mm dishes in complete medium. After having reached 40% confluency, the cells were washed twice and were left without nutrients in a serum-free medium containing fibronectin (2 μg/ml) and transferrin (30 μg/ml) for 3 h. The following hour, the medium was replaced with 2 ml of the same medium containing the inhibitor K-252a or the antibody […] at various concentrations in order to study the effect of the pharmacological inhibitor or of the blocking inhibitor on the base line growth level. After treatment for 24, 36, 48 and 72 h, the number of cells was determined, after trypsinization of the monolayer culture with a solution of 0.25% trypsin/EDTA, using a hemocytometer. An anti-mouse monoclonal antibody ([…], Sigma), i.e. an irrelevant antibody, was also used in order to determine the specificity of the blocking antibody.

PC12 cells = experiment: Coculture of NGF-sensitive PC12 cells with MCF-7 breast cancer cells (neurite differentiation); assay type: cell-based
Method: To do this, cells which develop in the presence of NGF, i.e. PC12 cells, were cocultured with MCF-7 breast cancer cells, as described in point 1.1 above, or else with NBEC cells, as described in point 1.1 above, as a control.
The PC12 cells were cultured beforehand at 37° C. in a 5% CO2 atmosphere, in Dulbecco's modified minimum essential medium (DMEM) supplemented with 3 g/l of sodium bicarbonate, 4 mM of L-glutamine, 10% of fetal calf serum, 5% of horse serum and 100 units/ml of penicillin/streptomycin.
The coculturing was carried out with Transwell® tissue culture-treated polycarbonate plates (12 mm in diameter and 12 μm pore size). An initial equilibrating period was observed by adding the media to the central well of the plate, and then to the Transwell® insert, which operation was followed by incubation at 37° C. for 3 h.
The PC12 cells were seeded in 12-well plates coated with collagen for 24 h in order to ensure correct attachment to the culture plates. The MCF-7 or NCBE cells were seeded inside the Transwell® insert, corresponding to the upper compartment, in the complete medium for 24 h. After this time, each cell line was rinsed three times with serum-free medium and was incubated in a withdrawal medium. […] The percentage of cells bearing neurites, defined as cells with one or more neurite extensions twice the length of the cell body, was counted. […]

In the case of `COC(=O)[C@@]1(O)C[C@H]2O[C@]1(C)n1c3ccccc3c3c4c(c5c6ccccc6n2c5c31)C(=O)NC4` [K-252a], the “growth of the MCF-7 cells (number of cells)” value (MCF-7 cells) is reported as “decreases” and the “PC12 cell differentiation (cells bearing neurites)” value (PC12 cells; coculture of MCF-7 and PC12 cells, 48 h, FIG. 2B) is reported as “strong inhibition of the PC12 cell differentiation”.
“NGF: nerve growth factor added to the medium as positive control for PC12 differentiation” was tested, and the “PC12 cell differentiation (neurite development)” value (PC12 cells; culture of PC12 cells alone as a control, in the presence of NGF, FIG. 2B photograph 3) was “neurite development due to differentiation is observed”.
